What was measured:
[1] = biological target: T1, CaM (Bos taurus, UniProt P62157); test: Pull-down assay with immobilized protein and LSM libraries; assay type: binding, bovine; settings: H14 library; 1:2 stoichiometry assumed; read-out: Surface mapping KD (apparent)
T1 construct: made in house; host or cells: E. coli BL21 (DE3)
Method in brief: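 CaM buffer was 20 mM HEPES pH 7.4, 150 mM NaCl, 5 mM CaCl2. LSM sublibrary members ([…]) incubated 30 min, RT, with equimolar His-tagged protein on Co-NTA resin. HPLC-MS measured unbound probes; bound fraction relative to resin-only background gave dissociation constants.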

[2] = biological target: T2, Gal-1 (Homo sapiens, UniProt P09382); test: as above; assay type: binding; settings: H14 library; 1:1 binding assumed; read-out: Surface mapping KD (apparent)
T2 construct: made in house; host or cells: E. coli BL21(DE3)
T2 sequence (P09382 whole entry): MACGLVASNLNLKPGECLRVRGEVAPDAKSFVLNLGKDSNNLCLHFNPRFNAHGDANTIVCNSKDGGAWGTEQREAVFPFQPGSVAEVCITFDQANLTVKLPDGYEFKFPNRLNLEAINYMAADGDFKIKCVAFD
Method in brief: (§1)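 Buffers were HEPES pH 7.4 with 150 mM NaCl, plus 1 mM TCEP and 1 mM CaCl2 (50 mM HEPES) for S100A4 and S100B, 1 mM TCEP for Gal-1, and no additive for RecQ-WH. Immobilized protein at 64 µM was equilibrated 30 min with the LSM sublibrary, and unbound probes were measured by LC-MS.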

[3] = biological target: T3, S100A4 (Homo sapiens, UniProt P26447); test: as above; assay type: binding; settings: H14 library; 1:1 binding assumed; read-out: Surface mapping KD (apparent)
T3 construct: made in house; host or cells: Escherichia coli BL21(DE3)
T3 sequence (P26447 whole entry): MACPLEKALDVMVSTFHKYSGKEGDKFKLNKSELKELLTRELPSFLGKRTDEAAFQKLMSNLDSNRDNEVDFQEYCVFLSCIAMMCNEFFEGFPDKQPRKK
Method in brief: as §1

[4] = biological target: T4, S100B (Homo sapiens, UniProt P04271); test: as above; assay type: binding; settings: H14 library; 1:1 binding assumed; read-out: Surface mapping KD (apparent)
T4 construct: made in house; host or cells: Escherichia coli BL21(DE3)
T4 sequence (P04271 1-92): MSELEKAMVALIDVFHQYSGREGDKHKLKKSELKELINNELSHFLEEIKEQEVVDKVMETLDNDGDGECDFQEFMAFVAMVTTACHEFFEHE
Method in brief: as §1

[5] = biological target: T4, S100B; test: Competition pull-down with native ligand RSK1 (689–735); assay type: binding; settings: H14 library; competitor peptide 200 µM; read-out: Surface mapping KD (apparent), competition
[6] = biological target: T2, Gal-1; test: Competition pull-down with lactose; assay type: binding; settings: H14 library; lactose 10 mM; read-out: Surface mapping KD (apparent), competition
Method in brief: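 His6-tagged proteins immobilized on Co-NTA resin at 64 µM final with 64-member LSM foldamer sublibraries (1 M each, as printed) in pH 7.4 HEPES/NaCl buffers (Ca2+/TCEP per target), 30 min RT; competitor peptides 200 µM final, lactose 10 mM for Gal-1. Bound fractions from LC-MS loss vs protein-free resin; KD assuming 1:1 binding.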

[7] = biological target: T1, CaM; test: Competition pull-down with native ligand TRPV1-Ct15; assay type: binding, bovine; settings: H14 library; competitor peptide 200 µM; read-out: Surface mapping KD (apparent), competition

SMILES	Kd [1]	Kd [2]	Kd [3]	Kd [4]	Kd [5]	Kd [6]	Kd [7]
CSCC[C@@H](CC(=O)N[C@H]1CCCC[C@@H]1C(N)=O)NC(=O)[C@H]1CCCC[C@@H]1NC(=O)[C@H]1CCCC[C@@H]1NC(=O)C[C@H](C)NC(=O)[C@H]1CCCC[C@@H]1N [H14 AM]	98 µM	307 µM	10 µM	256 µM	359 µM	487 µM	–
CC(C)[C@@H](CC(=O)N[C@H]1CCCC[C@@H]1C(N)=O)NC(=O)[C@H]1CCCC[C@@H]1NC(=O)[C@H]1CCCC[C@@H]1NC(=O)C[C@H](C)NC(=O)[C@H]1CCCC[C@@H]1N [H14 AV]	42 µM	100 µM	6 µM	153 µM	316 µM	201 µM	–
C[C@@H](CC(=O)N[C@H]1CCCC[C@@H]1C(=O)N[C@H]1CCCC[C@@H]1C(=O)N[C@H](CC(=O)N[C@H]1CCCC[C@@H]1C(N)=O)Cc1c[nH]c2ccccc12)NC(=O)[C@H]1CCCC[C@@H]1N [H14 AW]	2 µM	203 µM	42 µM	42 µM	127 µM	–	297 µM
CSCC[C@@H](CC(=O)N[C@H]1CCCC[C@@H]1C(N)=O)NC(=O)[C@H]1CCCC[C@@H]1NC(=O)[C@H]1CCCC[C@@H]1NC(=O)C[C@H](CC(=O)O)NC(=O)[C@H]1CCCC[C@@H]1N [H14 DM]	–	–	–	–	159 µM	397 µM	322 µM
CC[C@H](C)[C@@H](CC(=O)N[C@H]1CCCC[C@@H]1C(=O)N[C@H]1CCCC[C@@H]1C(=O)N[C@H](CC(=O)N[C@H]1CCCC[C@@H]1C(N)=O)[C@@H](C)O)NC(=O)[C@H]1CCCC[C@@H]1N [H14 IT]	51 µM	185 µM	19 µM	142 µM	373 µM	333 µM	–
CC(C)C[C@@H](CC(=O)N[C@H]1CCCC[C@@H]1C(=O)N[C@H]1CCCC[C@@H]1C(=O)N[C@@H](C)CC(=O)N[C@H]1CCCC[C@@H]1C(N)=O)NC(=O)[C@H]1CCCC[C@@H]1N [H14 LA]	8 µM	160 µM	34 µM	170 µM	294 µM	425 µM	–
CSCC[C@@H](CC(=O)N[C@H]1CCCC[C@@H]1C(=O)N[C@H]1CCCC[C@@H]1C(=O)N[C@@H](CC(N)=O)CC(=O)N[C@H]1CCCC[C@@H]1C(N)=O)NC(=O)[C@H]1CCCC[C@@H]1N [H14 MN]	122 µM	399 µM	–	–	449 µM	495 µM	–
CSCC[C@@H](CC(=O)N[C@H]1CCCC[C@@H]1C(=O)N[C@H]1CCCC[C@@H]1C(=O)N[C@@H](CCC(N)=O)CC(=O)N[C@H]1CCCC[C@@H]1C(N)=O)NC(=O)[C@H]1CCCC[C@@H]1N [H14 MQ]	145 µM	–	476 µM	–	394 µM	–	489 µM
CSCC[C@@H](CC(=O)N[C@H]1CCCC[C@@H]1C(=O)N[C@H]1CCCC[C@@H]1C(=O)N[C@@H](CO)CC(=O)N[C@H]1CCCC[C@@H]1C(N)=O)NC(=O)[C@H]1CCCC[C@@H]1N [H14 MS]	106 µM	–	320 µM	–	391 µM	–	431 µM
NC(=O)C[C@@H](CC(=O)N[C@H]1CCCC[C@@H]1C(N)=O)NC(=O)[C@H]1CCCC[C@@H]1NC(=O)[C@H]1CCCC[C@@H]1NC(=O)C[C@H](CC(N)=O)NC(=O)[C@H]1CCCC[C@@H]1N [H14 NN]	162 µM	246 µM	–	–	120 µM	444 µM	290 µM
NC(=O)CC[C@@H](CC(=O)N[C@H]1CCCC[C@@H]1C(N)=O)NC(=O)[C@H]1CCCC[C@@H]1NC(=O)[C@H]1CCCC[C@@H]1NC(=O)C[C@H](CC(N)=O)NC(=O)[C@H]1CCCC[C@@H]1N [H14 NQ]	190 µM	257 µM	–	–	478 µM	–	222 µM
NC(=O)C[C@@H](CC(=O)N[C@H]1CCCC[C@@H]1C(=O)N[C@H]1CCCC[C@@H]1C(=O)N[C@H](CC(=O)N[C@H]1CCCC[C@@H]1C(N)=O)Cc1ccc(O)cc1)NC(=O)[C@H]1CCCC[C@@H]1N [H14 NY]	109 µM	210 µM	–	193 µM	444 µM	337 µM	270 µM
NC(=O)CC[C@@H](CC(=O)N[C@H]1CCCC[C@@H]1C(=O)N[C@H]1CCCC[C@@H]1C(=O)N[C@H](CC(=O)N[C@H]1CCCC[C@@H]1C(N)=O)Cc1ccccc1)NC(=O)[C@H]1CCCC[C@@H]1N [H14 QF]	39 µM	285 µM	443 µM	83 µM	425 µM	319 µM	211 µM
NC(=O)CC[C@@H](CC(=O)N[C@H]1CCCC[C@@H]1C(=O)N[C@H]1CCCC[C@@H]1C(=O)N[C@H](CC(=O)N[C@H]1CCCC[C@@H]1C(N)=O)Cc1ccc(O)cc1)NC(=O)[C@H]1CCCC[C@@H]1N [H14 QY]	92 µM	174 µM	–	166 µM	188 µM	350 µM	345 µM
NC(=O)CC[C@@H](CC(=O)N[C@H]1CCCC[C@@H]1C(N)=O)NC(=O)[C@H]1CCCC[C@@H]1NC(=O)[C@H]1CCCC[C@@H]1NC(=O)C[C@H](CO)NC(=O)[C@H]1CCCC[C@@H]1N [H14 SQ]	176 µM	275 µM	–	–	445 µM	460 µM	292 µM
NC(=O)[C@H]1CCCC[C@@H]1NC(=O)C[C@H](Cc1ccc(O)cc1)NC(=O)[C@H]1CCCC[C@@H]1NC(=O)[C@H]1CCCC[C@@H]1NC(=O)C[C@H](CO)NC(=O)[C@H]1CCCC[C@@H]1N [H14 SY]	90 µM	318 µM	–	225 µM	109 µM	348 µM	244 µM
C[C@@H](O)[C@@H](CC(=O)N[C@H]1CCCC[C@@H]1C(=O)N[C@H]1CCCC[C@@H]1C(=O)N[C@@H](CC(N)=O)CC(=O)N[C@H]1CCCC[C@@H]1C(N)=O)NC(=O)[C@H]1CCCC[C@@H]1N [H14 TN]	176 µM	275 µM	–	–	445 µM	460 µM	292 µM
CC(C)[C@@H](CC(=O)N[C@H]1CCCC[C@@H]1C(=O)N[C@H]1CCCC[C@@H]1C(=O)N[C@@H](C)CC(=O)N[C@H]1CCCC[C@@H]1C(N)=O)NC(=O)[C@H]1CCCC[C@@H]1N [H14 VA]	38 µM	114 µM	35 µM	299 µM	393 µM	375 µM	–
CC(C)[C@@H](CC(=O)N[C@H]1CCCC[C@@H]1C(=O)N[C@H]1CCCC[C@@H]1C(=O)N[C@@H](CCCNC(=N)N)CC(=O)N[C@H]1CCCC[C@@H]1C(N)=O)NC(=O)[C@H]1CCCC[C@@H]1N [H14 VR]	40 µM	289 µM	284 µM	77 µM	221 µM	–	–
CC(C)[C@@H](CC(=O)N[C@H]1CCCC[C@@H]1C(=O)N[C@H]1CCCC[C@@H]1C(=O)N[C@H](CC(=O)N[C@H]1CCCC[C@@H]1C(N)=O)[C@@H](C)O)NC(=O)[C@H]1CCCC[C@@H]1N [H14 VT]	142 µM	347 µM	79 µM	382 µM	484 µM	–	–
NC(=O)C[C@@H](CC(=O)N[C@H]1CCCC[C@@H]1C(N)=O)NC(=O)[C@H]1CCCC[C@@H]1NC(=O)[C@H]1CCCC[C@@H]1NC(=O)C[C@H](Cc1ccc(O)cc1)NC(=O)[C@H]1CCCC[C@@H]1N [H14 YN]	111 µM	313 µM	435 µM	–	476 µM	271 µM	–
NC(=O)CC[C@@H](CC(=O)N[C@H]1CCCC[C@@H]1C(N)=O)NC(=O)[C@H]1CCCC[C@@H]1NC(=O)[C@H]1CCCC[C@@H]1NC(=O)C[C@H](Cc1ccc(O)cc1)NC(=O)[C@H]1CCCC[C@@H]1N [H14 YQ]	123 µM	238 µM	227 µM	480 µM	449 µM	439 µM	–
C[C@@H](O)[C@@H](CC(=O)N[C@H]1CCCC[C@@H]1C(N)=O)NC(=O)[C@H]1CCCC[C@@H]1NC(=O)[C@H]1CCCC[C@@H]1NC(=O)C[C@H](Cc1ccc(O)cc1)NC(=O)[C@H]1CCCC[C@@H]1N [H14 YT]	30 µM	396 µM	222 µM	416 µM	403 µM	–	–

From article PMC8162404, “Proteomimetic surface fragments distinguish targets by function” (Chemical Science, 2020)
